Measured values published in PubChem BioAssay (NCI).
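Five concentrations, 48 hours, 96-well plates. GI50 is the concentration that inhibits growth by half. TGI: total growth inhibition.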

Legend:
Test in all cases: inhibition of tumour cell growth, NCI panel, 48 h
UACC-257 melanoma = system: UACC-257 melanoma
NCI-H226 lung = system: NCI-H226 lung
M14 melanoma = system: M14 melanoma
HT29 colon = system: HT29 colon
HL-60(TB) leukemia = system: HL-60(TB) leukemia
K-562 leukemia = system: K-562 leukemia
HOP-62 NSCLC = system: HOP-62 NSCLC
SF-295 CNS = system: SF-295 CNS
EKVX NSCLC = system: EKVX NSCLC
NCI-H23 lung = system: NCI-H23 lung
A498 renal = system: A498 renal
HOP-92 NSCLC = system: HOP-92 NSCLC
KM12 colon = system: KM12 colon
HCT-15 colon = system: HCT-15 colon
SNB-75 CNS = system: SNB-75 CNS
786-0 renal = system: 786-0 renal
CAKI-1 renal = system: CAKI-1 renal
OVCAR-8 ovarian = system: OVCAR-8 ovarian
HCC-2998 colon = system: HCC-2998 colon
IGROV1 ovarian = system: IGROV1 ovarian
SNB-19 CNS = system: SNB-19 CNS
SR leukemia = system: SR leukemia
LOX IMVI melanoma = system: LOX IMVI melanoma
OVCAR-4 ovarian = system: OVCAR-4 ovarian
NCI-H460 lung = system: NCI-H460 lung
SF-268 CNS = system: SF-268 CNS
MCF7 breast = system: MCF7 breast
T-47D breast = system: T-47D breast
SW-620 colon = system: SW-620 colon
OVCAR-5 ovarian = system: OVCAR-5 ovarian
UACC-62 melanoma = system: UACC-62 melanoma
OVCAR-3 ovarian = system: OVCAR-3 ovarian
HS 578T breast = system: HS 578T breast
SK-MEL-28 melanoma = system: SK-MEL-28 melanoma
SN12C renal = system: SN12C renal
DU-145 prostate = system: DU-145 prostate
SK-OV-3 ovarian = system: SK-OV-3 ovarian
MOLT-4 leukemia = system: MOLT-4 leukemia
NCI-H522 lung = system: NCI-H522 lung
SK-MEL-2 melanoma = system: SK-MEL-2 melanoma
RPMI-8226 leukemia = system: RPMI-8226 leukemia
PC-3 prostate = system: PC-3 prostate
SF-539 CNS = system: SF-539 CNS
MDA-MB-231 breast = system: MDA-MB-231 breast
MDA-MB-468 breast = system: MDA-MB-468 breast
CCRF-CEM leukemia = system: CCRF-CEM leukemia
MALME-3M melanoma = system: MALME-3M melanoma
UO-31 renal = system: UO-31 renal
SK-MEL-5 melanoma = system: SK-MEL-5 melanoma
RXF 393 renal = system: RXF 393 renal
COLO 205 colon = system: COLO 205 colon
ACHN renal = system: ACHN renal
A549 NSCLC = system: A549 NSCLC
MDA-MB-435 = system: MDA-MB-435
TK-10 renal = system: TK-10 renal
BT-549 breast = system: BT-549 breast
HCT-116 colon = system: HCT-116 colon
U251 CNS = system: U251 CNS

SMILES: C[C@H](Nc1nc(NCCc2ccccc2)nc2ccccc12)c1ccccc1
- GI50 (UACC-257 melanoma): 1520 nM
- TGI (UACC-257 melanoma): 3040 nM
- GI50 (NCI-H226 lung): 1450 nM
- TGI (NCI-H226 lung): 3040 nM
- GI50 (M14 melanoma): 1530 nM
- TGI (M14 melanoma): 2920 nM
- GI50 (HT29 colon): 1260 nM
- TGI (HT29 colon): 2960 nM
- GI50 (HL-60(TB) leukemia): 1400 nM
- TGI (HL-60(TB) leukemia): 3980 nM
- GI50 (K-562 leukemia): 1040 nM
- TGI (K-562 leukemia): 3620 nM
- GI50 (HOP-62 NSCLC): 1520 nM
- TGI (HOP-62 NSCLC): 2930 nM
- GI50 (SF-295 CNS): 1460 nM
- TGI (SF-295 CNS): 2790 nM
- GI50 (EKVX NSCLC): 1420 nM
- TGI (EKVX NSCLC): 3210 nM
- GI50 (NCI-H23 lung): 1440 nM
- TGI (NCI-H23 lung): 2900 nM
- GI50 (A498 renal): 1450 nM
- TGI (A498 renal): 3370 nM
- GI50 (HOP-92 NSCLC): 1080 nM
- TGI (HOP-92 NSCLC): 2470 nM
- GI50 (KM12 colon): 1780 nM
- TGI (KM12 colon): 3730 nM
- GI50 (HCT-15 colon): 1420 nM
- TGI (HCT-15 colon): 2900 nM
- GI50 (SNB-75 CNS): 563 nM
- TGI (SNB-75 CNS): 3490 nM
- GI50 (786-0 renal): 1480 nM
- TGI (786-0 renal): 2840 nM
- GI50 (CAKI-1 renal): 1360 nM
- TGI (CAKI-1 renal): 2730 nM
- GI50 (OVCAR-8 ovarian): 1400 nM
- TGI (OVCAR-8 ovarian): 2820 nM
- GI50 (HCC-2998 colon): 1400 nM
- TGI (HCC-2998 colon): 2700 nM
- GI50 (IGROV1 ovarian): 1550 nM
- TGI (IGROV1 ovarian): 3260 nM
- GI50 (SNB-19 CNS): 2020 nM
- TGI (SNB-19 CNS): 5560 nM
- GI50 (SR leukemia): 1460 nM
- TGI (SR leukemia): 3510 nM
- GI50 (LOX IMVI melanoma): 1590 nM
- TGI (LOX IMVI melanoma): 3010 nM
- GI50 (OVCAR-4 ovarian): 1680 nM
- TGI (OVCAR-4 ovarian): 5900 nM
- GI50 (NCI-H460 lung): 1350 nM
- TGI (NCI-H460 lung): 2830 nM
- GI50 (SF-268 CNS): 2070 nM
- TGI (SF-268 CNS): 6310 nM
- GI50 (MCF7 breast): 1470 nM
- TGI (MCF7 breast): 2990 nM
- GI50 (T-47D breast): 1420 nM
- TGI (T-47D breast): 3660 nM
- GI50 (SW-620 colon): 1400 nM
- TGI (SW-620 colon): 2880 nM
- GI50 (OVCAR-5 ovarian): 1630 nM
- TGI (OVCAR-5 ovarian): 3420 nM
- GI50 (UACC-62 melanoma): 1530 nM
- TGI (UACC-62 melanoma): 2900 nM
- GI50 (OVCAR-3 ovarian): 1340 nM
- TGI (OVCAR-3 ovarian): 2980 nM
- GI50 (HS 578T breast): 1450 nM
- TGI (HS 578T breast): 3460 nM
- GI50 (SK-MEL-28 melanoma): 1470 nM
- TGI (SK-MEL-28 melanoma): 2800 nM
- GI50 (SN12C renal): 1760 nM
- TGI (SN12C renal): 4130 nM
- GI50 (DU-145 prostate): 2480 nM
- TGI (DU-145 prostate): 6950 nM
- GI50 (SK-OV-3 ovarian): 1560 nM
- TGI (SK-OV-3 ovarian): 3000 nM
- GI50 (MOLT-4 leukemia): 1500 nM
- TGI (MOLT-4 leukemia): 3640 nM
- GI50 (NCI-H522 lung): 1500 nM
- TGI (NCI-H522 lung): 3090 nM
- GI50 (SK-MEL-2 melanoma): 1370 nM
- TGI (SK-MEL-2 melanoma): 2710 nM
- GI50 (RPMI-8226 leukemia): 1400 nM
- TGI (RPMI-8226 leukemia): 4170 nM
- GI50 (PC-3 prostate): 1370 nM
- TGI (PC-3 prostate): 3270 nM
- GI50 (SF-539 CNS): 1700 nM
- TGI (SF-539 CNS): 3130 nM
- GI50 (MDA-MB-231 breast): 1680 nM
- TGI (MDA-MB-231 breast): 3100 nM
- GI50 (MDA-MB-468 breast): 1130 nM
- TGI (MDA-MB-468 breast): 2450 nM
- GI50 (CCRF-CEM leukemia): 1950 nM
- TGI (CCRF-CEM leukemia): 7660 nM
- GI50 (MALME-3M melanoma): 1400 nM
- TGI (MALME-3M melanoma): 2780 nM
- GI50 (UO-31 renal): 1220 nM
- TGI (UO-31 renal): 2530 nM
- GI50 (SK-MEL-5 melanoma): 1370 nM
- TGI (SK-MEL-5 melanoma): 2660 nM
- GI50 (RXF 393 renal): 1070 nM
- TGI (RXF 393 renal): 2310 nM
- GI50 (COLO 205 colon): 1150 nM
- TGI (COLO 205 colon): 2430 nM
- GI50 (ACHN renal): 1720 nM
- TGI (ACHN renal): 3810 nM
- GI50 (A549 NSCLC): 1760 nM
- TGI (A549 NSCLC): 6180 nM
- GI50 (MDA-MB-435): 1370 nM
- TGI (MDA-MB-435): 2730 nM
- GI50 (TK-10 renal): 1930 nM
- TGI (TK-10 renal): 5440 nM
- GI50 (BT-549 breast): 1330 nM
- TGI (BT-549 breast): 2640 nM
- GI50 (HCT-116 colon): 1260 nM
- TGI (HCT-116 colon): 2510 nM
- GI50 (U251 CNS): 1440 nM
- TGI (U251 CNS): 2830 nM
